Experimental data as given in EP0248597A2, “Phospholipase A2 inhibitors and methods of synthesis” (ORTHO PHARMACEUTICAL CORPORATION, priority 1986, dated 1987).
“And” between values parts separate entries of the source, which are not always exact repeats. Identical values can stand only once. Counter-ions that a name gives are not always drawn. Values belong to the molecule of their own block, whether it stands above or below them.

Key:
[1] = molecular target: Rat Stomach Phospholipase A2 (Rattus norvegicus, UniProt P04055); assay: Phospholipase A2 assay (hydrolysis of 14C-arachidonyl phosphatidyl choline), rat stomach enzyme; format: biochemical; details: at 10^-4M; read-out: Percent Inhibition of the Hydrolytic Activity of Rat Stomach Phospholipase A2
Sequence of Rat Stomach Phospholipase A2 (P04055 23-146): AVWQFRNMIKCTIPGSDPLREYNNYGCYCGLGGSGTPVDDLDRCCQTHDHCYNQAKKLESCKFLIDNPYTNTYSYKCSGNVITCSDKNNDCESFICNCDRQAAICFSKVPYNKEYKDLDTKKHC
Protocol: (§1) The following procedure is a modification of the Phospholipase A₂ assay that was first described by Costentino et al., Prostaglandins, 22, 309 (1981) and is the method used herein to determine rat stomach and porcine pancreas phospholipas A₂ activity.
(§2) A suspension of phospholipase A₂ (Sigma Chemical Co., St. Louis, MO) is diluted with 25 millimolar (mM) Tris HCl buffer containing 1 mM calcium chloride to a final concentration of 10 micrograms of protein per milliliter (ml). Aliquots of 0.1 ml (7.1 units) of the enzyme suspension are added to each assay tube. Test compounds are added tin 0.01 ml aliquots in dimethyl sulfoxide or methanol and the volume is brought to 0.15 ml with the buffer. A preincubation is carried out at 37°C for 5 minutes. To start the reaction, 0.01 microcuries (0.179 nanomoles) of 2-arachidonyl (1-¹⁴C) 1-palmitoyl phosphatidyl choline (New England Nuclear, Boston, MA) are added to each tube, including three blank tubes containing no enzyme, and the incubation is carried out for 10 minutes at 37°C. The reaction is stopped with the addition of 0.07 ml of 1N HCl to each tube. Blanks, controls and each concentration of test compound are assayed in triplicate.
(§3) The reaction mixtures are extracted with ethyl acetate, and the organic and aqueous phases are separated by low speed centrifugation. The organic phase is dried under nitrogen and is then resuspended in 0.01 ml ethyl acetate. Arachidonic acid (50 micrograms in 0.01 ml methanol) is added to each tube as a carrier and standard. The entire mixture is spotted on silica gel G thin layer chromatography plates that are developed in a solvent system of ethyl acetate:acetic acid (99:1 by volume). […] Ten ml of Aquasol-2 (American Cyanamid Co., Wayne, NJ) are added to each vial, and the radioactivity is counted by liquid scintillation spectrometry.
(§4) The data are calculated as the ratio in percent of unesterified arachidonic acid to total radioactivity recovered. The potency of a compound is preferably determined by its IC₅₀ value (the concentration required to inhibit the reaction by 50 percent). […]

[2] = molecular target: T1, Porcine Pancreas Phospholipase A2 (Sus scrofa, UniProt P00592); assay: Phospholipase A2 assay (hydrolysis of 14C-arachidonyl phosphatidyl choline), porcine pancreas enzyme; format: biochemical
T1 construct: purchased Sigma Chemical Co., St. Louis, MO; host or cells: porcine pancreas
T1 sequence (P00592 23-146): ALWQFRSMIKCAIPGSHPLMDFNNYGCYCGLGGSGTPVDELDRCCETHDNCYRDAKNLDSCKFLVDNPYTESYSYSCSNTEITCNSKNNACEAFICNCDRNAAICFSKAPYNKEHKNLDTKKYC
Protocol: as §1, §2, §3, §4

[3] = system: experimentally-induced inflammation in the mouse ear; assay: Mouse ear edema assay (topical anti-inflammatory activity); format: in vivo
Protocol: Compound 2 was also studied in a mouse ear edema assay to provide a measure of topical anti-inflammatory activity.
The topical antiinflammatory activity of a compound is determined by its ability to inhibit an experimentally-induced inflammation in the mouse ear. Croton oil, or 12-0-tetradecanoylphorbol acetate in acetone is dispensed onto the dorsum of one ear of the mouse. Five to six hours later the mice are sacrificed. A section of each ear is removed with a 7 mm cork borer and weighed on a electronic balance. The difference in weight between treated and untreated ears is determined. Compounds to be evaluated for antiinflammatory activity are incorporated in the croton oil irritant mixture, or applied in an appropriate vehicle.

inhibition at 100 µM [1]: 55%
SMILES: CCCCCCCCCCCC/C=C\[C@@H](SC[C@H](NC(=O)CC[C@H](N)C(=O)O)C(=O)NCC(=O)O)[C@@H](O)CCCCOC1CCCCO1 (stereo partly drawn) [Compound 3, S-6-[(5S,6R)-5-hydroxy-1-(2-tetrahydropyranyloxy)-7(Z)-eicosenyl] glutathione triethylammonium salt dihydrate]

inhibition at 100 µM [1]: 40%
SMILES: CCCCCCCCCCCC/C=C\[C@@H](SC[C@H](N)C(=O)O)[C@@H](O)CCCCO [Compound 4, (5S,6R)-6-[S-(R)-cysteinyl] -7(Z)-eicosen-1,5-diol hemihydrate]

Percent Inhibition of the Hydrolytic Activity of Porcine Pancreas Phospholipase A2 ([2]; at 10^-4M, 100 µM): 73%
inhibition at 100 µM ([2]; at 10^-4M, read-out: Percent Inhibition of the Hydrolytic Activity of Porcine Pancreas Phospholipase A2): 72%
inhibition at 100 µM [1]: 58%
SMILES: CCCCCCCCCCCC/C=C\[C@@H](SC[C@H](NC(C)=O)C(=O)OC)C(CCCCO)=NO [Compound 14, Methyl N-acetyl-S-6-[(5S,6R)-1-hydroxy-5-oximino-7(Z)-eicosenyl]-(R)-cysteinate]

Percent Inhibition of the Hydrolytic Activity of Porcine Pancreas Phospholipase A2 ([2]; at 10^-5 Molar (M), three independent trials, 10 µM): 62% and 86% and 68%
SMILES: CCCCCCCCCCCC/C=C\[C@@H](SC[C@H](NC(C)=O)C(=O)OC)[C@@H](O)CCCCO [Compound 2, Methyl N-acetyl-S-6[(5S,6R)-1,5-dihydroxy-7(Z)-eicosenyl]-(R)-cysteinate]
Inhibition (percent) Mouse No. 1 ([3]; 50 micrograms): 33%
Inhibition (percent) Mouse No. 2 ([3]; 50 micrograms): 68%
Inhibition (percent) Mouse No. 1 ([3]; 100 micrograms): 53%
Inhibition (percent) Mouse No. 2 ([3]; 100 micrograms): 72%
Inhibition (percent) Mouse No. 1 ([3]; 200 micrograms): 62%
Inhibition (percent) Mouse No. 2 ([3]; 200 micrograms): 82%
Inhibition (percent) Mouse No. 1 ([3]; 400 micrograms): 75%
Inhibition (percent) Mouse No. 2 ([3]; 400 micrograms): 80%
